Experimental data reported in article PMC4062444, “Mechanisms of U87 Astrocytoma Cell Uptake and Trafficking of Monomeric versus Protofibril Alzheimer’s Disease Amyloid-β Proteins” (PLoS ONE, 2014).
Counter-ions that a name gives are not always drawn.

Columns and labels:
[1] = test system: U87 human brain astrocytoma cell line; test: Uptake of HiLyte Fluor555-tagged Aβ42 peptides by U87 cells (confocal microscopy); type: cell-based; settings: for reduction of oAβ42 uptake by U87 cells / reduction of sAβ42 uptake by U87 cells: inhibitor pretreatment (5 mM amiloride 30 min; 300 nM wortmannin 1 h; 1 mM MβCD 30 min), integrated intracellular fluorescence vs mock-treated cells, >25 cells in each of three experiments; for reduction of oAβ42 uptake by U87 cells: then 0.4 µM HiLyte Fluor555-oAβ42 2 h at 37°C; for reduction of sAβ42 uptake by U87 cells: then 0.4 µM HiLyte Fluor555-sAβ42 2 h at 37°C; for effect of Dyn 1 dominant-negative K44A mutant on uptake: U87 cells expressing GFP-tagged Dyn1 K44A, 0.4 µM peptide 2 h at 37°C
Experimental: U87 cells were seeded on coverslips and grown at 37°C overnight in complete medium. Uptake experiments were initiated by incubating cells at 37°C with 0.4 µM HiLyte Fluor555-tagged Aβ42 peptides for 2 h, which were diluted in imaging medium (α-MEM without phenol red supplemented with 20 mM HEPES, pH 7.4, and 5% FBS). Cells were subsequently washed three times with ice-cold PBS, fixed with 3.7% PFA for 20 min and stained with 1 µg/ml DAPI diluted in PBS containing 0.1% saponin for 15 min at room temperature. Then, cells were mounted with a mounting solution containing 50% glycerol and 50% PBS. For endocytosis inhibition experiments, cells were pretreated with various endocytotic inhibitors with indicated times followed by Aβ42 peptides uptake in the presence or absence of these inhibitors.
Briefly, in most cases, the integrated intracellular signals were determined from a 2D projection image of the fluorescence intensities of a Z-stack lacking the most bottom and top planes as they mostly contain plasma membrane signals. The cell outline in each plane was determined by increasing the brightness of the image. In some cases, bright field images were also taken to help identify the cell outlines. The integrated fluorescence within the cell was background-corrected by subtraction of the fluorescence signal surrounding the cell under analysis and its value was then normalized to the mean (average) of the control cells set to 100. For plain cells in the absence or presence of various pharmacological treatment, all intact cells in each image field were used for quantification of Aβ uptake; for cells transfected with plasmids, only the positively transfected cells were used for quantification of Aβ uptake, which was estimated from the EGFP signal in green channel.

astrocytic U87 cells = settings: 20 µM Aβ, cited from earlier work
Text: We assumed that U87 cells tolerated the toxic effects of Aβ42 species better than the neurons, particularly because we used relatively low concentrations of Aβ peptides, which could be rapidly cleared by U87 cells and produced negligible cellular toxicity. This property assigns a neuronal protection role to astrocytes because they can promptly clear Aβ ...

ThT fluorescence assay = type: physicochemical; settings: 10 µM ThT in deionized water, pH 7.4; ex 450 nm, em 482 nm; Aβ42 0 to 30 µM
Experimental: The assay was performed according to a standard protocol. A 200 µM aqueous Thioflavin T (ThT) was prepared and filtered through 0.22 µm filter. For measurement, Aβ42 samples (monomers or oligomers) were prepared in 10 µM ThT/deionized water solution, pH 7.4. Immediately after mixing, ThT fluorescence of samples was measured with the excitation wavelength at 450 nm and emission wavelength at 482 nm with 470 nm cut-off by a Microplate Reader (Molecular Devices, Sunnyvale, CA, USA).

[2] = Transmission electron microscopy of oligomer preparation; type: physicochemical; settings: TEM, 100 µM oAβ42, 1% uranyl acetate stain, 32,000×
Experimental: Aβ42 oligomers were applied to formvar-coated 300-mesh copper grids for 2 min and excess fluid was filtered off. The samples were then stained with 1% uranyl acetate for 1 min, excess fluid was filtered off and the grids were examined with H-8100 transmission electron microscope (Hitachi, Tokyo, Japan) operated at 150 KV and 32,000× magnification.

U87 cells [3] = test: Localization of internalized Aβ42 within the endolysosomal system; type: cell-based, human; settings: live-cell confocal; for fraction transported into early endosomes (EGFP-Rab5): U87 cells transfected with EGFP-Rab5, 0.4 µM peptide for 15 min, 30 min, 1 h or 2 h; for fraction localized to Lysotracker Green positive vesicles (lysosomes): U87 cells, 0.4 µM peptide for 30 min to 3 h, 50 nM LysoTracker Green
Experimental: The trafficking of fluro-tagged monomeric and oligomeric Aβ42 was measured as follows. To examine the localization in early endosomes, cells were transfected with EGFP-Rab5 plasmid to label early endosomes. 24 h after transfection, cells were treated with Aβ42 peptides for indicated time periods. After changing with the fresh imaging medium, live cell imaging was then taken using a confocal microscope with an objective heater (set at 37°C). To examine the localization of peptides in lysosomes, plain cells were first treated with Aβ42 peptides for indicated time periods, and 30 min before taking imaging, lysotracker Green were supplemented in the incubation medium (50 nM) to label lysosomes. Afterwards, fresh medium was changed and live cell imaging was taken.
Images were deconvolved using AutoQuant, a 50-pixel-wide rolling-ball subtraction algorithm was subsequently used to remove background noise. The sub-stacks of 3 sections spanning 0.4 µm were generated and imported to ImageJ for analysis. Manders’ coefficient was calculated using ImageJ plugin “JACop”. The percentage was scored as the Aβ puncta signals that are positive for EGFP-Rab5 or Lysotracker Green signals with respect to the total number of Aβ puncta.

U87 cells [4] = test system: U87 cells
Experimental: Cells were incubated in fresh DMEM containing 0.4 µM fluro-tagged Aβ42 monomers or oligomers for 2 h. After extensively wash, cells were chased in fresh completed medium with indicated times up to 72 hours. Cells were subsequently fixed, stained with DAPI and mounted as described above. Images acquisition and analysis were performed as described below.
Estimation of the half-life and rate constants for degradation of Aβ42 peptides were made by fitting data using a single-phase exponential decay equation (Origin, ver. 6.0).

U87 cells [5] = test system: U87 cells; remark: listed apart in the source
Experimental: Cells maintained in the serum free medium without Aβ were used as negative control. Following addition of 20 µl MTS reagent into each well, plates were incubated at 37°C for 4 h. The formazan product was quantified by measuring absorbance at 490 nm with a Microplate Reader (Molecular Devices, Sunnyvale, CA, USA). All the experiments were repeated three times.

O=C(N/N=C/c1ccc(O)c(O)c1)c1cc2ccccc2cc1O [Dynasore]
oAβ42 entry after Dynasore treatment ([1]; Dynasore pretreatment, then oAβ42 2 h at 37°C, confocal microscopy): almost entirely blocked
internalization of sAβ42 after Dynasore treatment ([1]; Dynasore pretreatment, then sAβ42 2 h at 37°C, confocal microscopy): strongly blocked

N=C(N)NC(=O)c1nc(Cl)c(N)nc1N [amiloride, Amiloride hydrochloride hydrate]
reduction of oAβ42 uptake by U87 cells [1]: 92%
reduction of sAβ42 uptake by U87 cells [1]: 61%

COC[C@H]1OC(=O)c2coc3c2[C@@]1(C)C1=C(C3=O)[C@@H]2CCC(=O)[C@@]2(C)C[C@H]1OC(C)=O [wortmannin]
reduction of oAβ42 uptake by U87 cells [1]: 37%
reduction of sAβ42 uptake by U87 cells [1]: 55%

Aβ: Aβ used by Wang et al. (ref 36, amyloid-beta1–42) on U87 cells
viability of U87 cells (astrocytic U87 cells; autophagic cell death): did decrease
apoptosis of U87 cells (astrocytic U87 cells): not induced to undergo apoptosis

Methyl-β-cyclodextrin [MβCD]
reduction of oAβ42 uptake by U87 cells [1]: 48%
reduction of sAβ42 uptake by U87 cells [1]: 46%

oAβ42: protofibril, an oligomeric assembly of Aβ42 prepared from sAβ42 at pH 2.0, 37°C, 24 h
effect of Dyn 1 dominant-negative K44A mutant on uptake [1]: no effect
ThT fluorescence after titration with Aβ42 solution (ThT fluorescence assay): increased in a nearly linear-manner
average length of oligomers on electron micrographs [2]: < 150 nm
diameter of oligomers on electron micrographs [2]: approximately 5 nm
fraction transported into early endosomes (EGFP-Rab5) (U87 cells [3]): low fraction
fraction localized to Lysotracker Green positive vesicles (lysosomes) (U87 cells [3]): increased with prolonged Aβ42 treating time
half-time (t0.5) of degradation in U87 cells (U87 cells [4]): 8.31 h
U87 cell growth / viability (U87 cells [5]): not inhibited

sAβ42: soluble monomeric HiLyte Fluor555-labeled Aβ42 (Anaspec) dissolved in 0.1% NH4OH
effect of Dyn 1 dominant-negative K44A mutant on uptake [1]: no effect
ThT fluorescence after titration with Aβ42 solution (ThT fluorescence assay): basal fluorescence level
fraction transported into early endosomes (EGFP-Rab5) (U87 cells [3]): low fraction
fraction localized to Lysotracker Green positive vesicles (lysosomes) (U87 cells [3]): increased with prolonged Aβ42 treating time
half-time (t0.5) of degradation in U87 cells (U87 cells [4]): 2.68 h
U87 cell growth / viability (U87 cells [5]): not inhibited
